Measurements taken from patent US6495591B1, “Fungal efflux pump inhibitors” (Essential Therapeutics, Inc., priority 1997, dated 2002).
Where two headings read alike, the source gives them in different places.

What was measured:
[1] = system: P388/ADM, adriamycin resistant subline; test: Adriamycin cytotoxicity (MTT), P-glycoprotein assay
Method: (§1) The inhibitory effect of milbemycin β1 against the mammalian P-glycoprotein multi-drug resistant pump was determined following the procedure described by Tsuruo et al (Cancer Res., 1981. 41:1967-1972) with slight modification. The cytotoxicity of antitumor agent, adriamycin, against adriamycin sensitive P388 cell line (mouse leukemia) and its adriamycin resistant subline line (P388/ADM) was measured in the presence of various concentrations of milbemycin β1. […] The assay is performed in serum-free media containing 20 μM of 2-mercaptoethanol. Chemosensitivity to adriamycin was determined […] based on the reduction of MTT (3-[4,5-dimethylthiazol-2-yl]-2,5-diphenyltetrazolium bromide) into blue formazan.

[2] = system: P388 cell line (mouse leukemia), adriamycin sensitive; test: as above
Method: as §1

[3] = system: mammalian P-glycoprotein multi-drug resistant pump; format: cell-based, mouse; conditions: no inhibitor (None)
Method: as §1

[4] = system: YEM 17 C. glabrata, CgCDR up; format: cell-based; conditions: 24 hrs, 80% inhibition; for MIC of compound in the presence of fluconazole (+): 1/8 × MIC of fluconazole
[5] = system: YEM 15 C. albicans, CDR1CDR2 up; test: microbe, parasite or virus in culture; format: cell-based; conditions: YEM 15, 24 hrs, 80% inhibition; for MIC of compound in the presence of fluconazole (+): 1/8 × MIC of fluconazole
[6] = molecular target: pFLU (MF) efflux pump in S. cerevisiae YEM-38 (Candida albicans, UniProt G1UB37); test: cell-based; format: cell-based, C. albicans; conditions: for FEPIhalf (concentration needed to reduce activity of efflux pump by 50%): YEM-38 pFLU, fluconazole fixed at FLUhalf 2
[7] = molecular target: pCDRI (ABC) efflux pump in S. cerevisiae YEM-1 (Candida albicans, UniProt P43071); test: cell-based; format: cell-based, C. albicans; conditions: for FEPIhalf (concentration needed to reduce activity of efflux pump by 50%): YEM-1 pCDRI, fluconazole fixed at FLUhalf 5.6
YEM 51 C. glabrata wt = test: FEPI MIC with/without 1/8 fluconazole MIC at 24 hrs (Table 11); format: cell-based
YEM 53 C. krusei = test: as above; format: cell-based
[8] = system: YEM 13 C. albicans BEN up; test: microbe, parasite or virus in culture; format: cell-based; conditions: YEM 13, 24 hrs, 80% inhibition; for MIC of compound in the presence of fluconazole (+): 1/8 × MIC of fluconazole
[9] = molecular target: pCgCDR (ABC) efflux pump in S. cerevisiae YEM-39 (Candida glabrata, UniProt Q6FK23); test: cell-based; format: cell-based, C. glabrata; conditions: for FEPIhalf (concentration needed to reduce activity of efflux pump by 50%): YEM-39 pCgCDR, fluconazole fixed at FLUhalf 4
[10] = molecular target: pBEN (MF) efflux pump in S. cerevisiae YEM-2 (Candida albicans, UniProt P28873); test: cell-based; format: cell-based, C. albicans; conditions: for FEPIhalf (concentration needed to reduce activity of efflux pump by 50%): YEM-2 pBEN, fluconazole fixed at FLUhalf 5.6
Aspergillus fumigatus = test: FEPI MICs in combination with 1/4 the azole's MIC (Table 12); format: cell-based; design: FEPI MIC (alone): unit not given here; conditions: for FEPI MIC with itraconazole, 60% Inh / FEPI MIC with itraconazole, 80% Inh: itraconazole 0.063 μg/ml (1/4 MIC); for FEPI MIC with ketoconazole, 60% Inh / FEPI MIC with ketoconazole, 80% Inh: ketoconazole 4 μg/ml (1/4 MIC); for FEPI MIC (alone): no azole, 35° C., CM Broth
Method: The combinations were tested against a series of Candida strain with known expression of efflux pumps or with complete deletion of all known pumps and Aspergillus fumigatus. Results are reported as minimum inhibitory concentration (MIC) of […] in the presence or absence of […]. A total of 27 distinct milbemycins were studied.

[11] = molecular target: pCDR2 (ABC) efflux pump in S. cerevisiae YEM-37 (Candida albicans, UniProt P78595); test: cell-based; format: cell-based, C. albicans; conditions: for FEPIhalf (concentration needed to reduce activity of efflux pump by 50%): YEM-37 pCDR2, fluconazole fixed at FLUhalf 1
YEM 30 C. albicans wt = test: FEPI MIC with/without 1/8 fluconazole MIC at 24 hrs (Table 11); format: cell-based
[12] = system: pCgBEN (MF) efflux pump in S. cerevisiae YEM-40; format: cell-based, C. glabrata
[13] = system: YEM 27 C. albicans ΔCDR1ΔCDR2 ΔBENΔFLU1; test: microbe, parasite or virus in culture; format: cell-based; conditions: YEM 27, 24 hrs, 80% inhibition; for MIC of compound in the presence of fluconazole (+): 1/8 × MIC of fluconazole
[14] = system: YEM 24 C. albicans ΔCDR1, ΔCDR2; test: microbe, parasite or virus in culture; format: cell-based; conditions: YEM 24, 24 hrs, 80% inhibition; for MIC of compound in the presence of fluconazole (+): 1/8 × MIC of fluconazole
C. albicans YEM-13 (BEN) = format: cell-based
[15] = system: C. krusei YEM-52 (ATCC 90878), wild type; test: Broth dilution MIC, fluconazole with/without milbemycin oxime (Table 6); format: cell-based; conditions: YEM-52; milbemycin oxime 2.5 μg/ml
[16] = system: C. glabrata YEM-19 (CgCDR overexpressor); format: cell-based
[17] = system: C. albicans YEM-15 (CDR1 & CDR2 overexpressor); format: cell-based
[18] = system: C. krusei YEM-52 (ATCC 90878), wild type; test: Minimal concentration to reduce fluconazole MIC sixteen-fold (Table 7); format: cell-based; conditions: YEM-52, wild type
[19] = YEM 51, 1/8 × MIC of fluconazole, 24 hrs, 80% inhibition
[20] = YEM 53, 1/8 × MIC of fluconazole, 24 hrs, 80% inhibition
[21] = fluconazole 32 μg/ml (1/4 MIC), 60% inhibition
[22] = fluconazole 32 μg/ml (1/4 MIC), 80% inhibition
[23] = YEM 30, 1/8 × MIC of fluconazole, 24 hrs, 80% inhibition

Chain of pFLU (MF) efflux pump in S. cerevisiae YEM-38 (G1UB37 whole entry): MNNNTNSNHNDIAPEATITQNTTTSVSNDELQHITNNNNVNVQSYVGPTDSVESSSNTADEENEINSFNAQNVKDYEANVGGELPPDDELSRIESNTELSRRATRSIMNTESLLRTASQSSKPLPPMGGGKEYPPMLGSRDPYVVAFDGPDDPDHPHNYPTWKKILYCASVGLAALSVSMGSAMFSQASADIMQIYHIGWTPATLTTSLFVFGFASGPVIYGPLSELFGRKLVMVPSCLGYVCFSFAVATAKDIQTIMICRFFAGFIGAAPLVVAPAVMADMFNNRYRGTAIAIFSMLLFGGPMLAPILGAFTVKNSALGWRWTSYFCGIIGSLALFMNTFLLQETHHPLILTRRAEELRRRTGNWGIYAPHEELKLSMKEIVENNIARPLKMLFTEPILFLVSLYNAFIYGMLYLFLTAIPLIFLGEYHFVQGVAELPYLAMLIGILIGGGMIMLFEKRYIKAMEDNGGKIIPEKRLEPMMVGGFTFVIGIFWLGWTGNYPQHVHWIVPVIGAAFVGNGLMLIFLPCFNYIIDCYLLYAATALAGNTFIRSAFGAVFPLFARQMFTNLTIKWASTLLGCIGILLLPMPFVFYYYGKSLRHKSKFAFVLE
Chain of pCDRI (ABC) efflux pump in S. cerevisiae YEM-1 (P43071 whole entry): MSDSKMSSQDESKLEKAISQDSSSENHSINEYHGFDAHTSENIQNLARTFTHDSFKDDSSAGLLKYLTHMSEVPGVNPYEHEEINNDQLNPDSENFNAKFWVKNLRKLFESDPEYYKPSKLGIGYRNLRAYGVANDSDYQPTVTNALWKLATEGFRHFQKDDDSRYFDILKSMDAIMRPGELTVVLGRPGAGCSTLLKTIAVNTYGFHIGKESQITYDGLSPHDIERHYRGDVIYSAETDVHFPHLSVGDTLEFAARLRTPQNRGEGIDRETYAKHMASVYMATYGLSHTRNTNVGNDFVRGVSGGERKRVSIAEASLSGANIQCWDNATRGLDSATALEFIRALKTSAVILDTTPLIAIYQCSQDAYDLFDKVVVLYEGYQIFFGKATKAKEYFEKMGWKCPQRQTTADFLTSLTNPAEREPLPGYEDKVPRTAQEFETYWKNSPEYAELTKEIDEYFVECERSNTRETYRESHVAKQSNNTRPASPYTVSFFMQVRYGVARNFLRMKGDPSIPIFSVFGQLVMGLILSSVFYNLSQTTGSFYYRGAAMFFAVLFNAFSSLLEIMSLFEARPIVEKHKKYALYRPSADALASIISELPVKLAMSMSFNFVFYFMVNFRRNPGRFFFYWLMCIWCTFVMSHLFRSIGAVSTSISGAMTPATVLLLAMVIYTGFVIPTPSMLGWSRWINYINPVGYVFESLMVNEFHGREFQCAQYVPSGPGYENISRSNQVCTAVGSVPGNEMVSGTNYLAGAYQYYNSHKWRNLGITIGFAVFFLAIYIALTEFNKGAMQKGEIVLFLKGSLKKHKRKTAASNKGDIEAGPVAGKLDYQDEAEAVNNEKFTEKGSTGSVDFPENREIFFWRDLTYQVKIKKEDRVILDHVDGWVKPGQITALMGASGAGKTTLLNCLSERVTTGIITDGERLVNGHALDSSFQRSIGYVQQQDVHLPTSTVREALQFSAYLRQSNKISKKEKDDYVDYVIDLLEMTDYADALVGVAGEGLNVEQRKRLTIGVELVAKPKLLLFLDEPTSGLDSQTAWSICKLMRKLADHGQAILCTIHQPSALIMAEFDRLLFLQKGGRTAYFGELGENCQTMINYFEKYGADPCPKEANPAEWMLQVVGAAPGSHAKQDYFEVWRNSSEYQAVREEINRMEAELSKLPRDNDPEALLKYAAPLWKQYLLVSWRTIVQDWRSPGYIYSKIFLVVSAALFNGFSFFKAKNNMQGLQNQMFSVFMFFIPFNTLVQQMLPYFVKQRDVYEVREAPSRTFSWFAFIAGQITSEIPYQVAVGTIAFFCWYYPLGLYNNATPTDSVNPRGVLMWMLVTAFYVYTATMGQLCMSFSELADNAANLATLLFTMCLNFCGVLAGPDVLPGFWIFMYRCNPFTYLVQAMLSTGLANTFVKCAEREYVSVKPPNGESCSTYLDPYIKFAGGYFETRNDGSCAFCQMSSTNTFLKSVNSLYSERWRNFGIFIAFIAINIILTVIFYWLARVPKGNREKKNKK
Chain of pCgCDR (ABC) efflux pump in S. cerevisiae YEM-39 (Q6FK23 whole entry): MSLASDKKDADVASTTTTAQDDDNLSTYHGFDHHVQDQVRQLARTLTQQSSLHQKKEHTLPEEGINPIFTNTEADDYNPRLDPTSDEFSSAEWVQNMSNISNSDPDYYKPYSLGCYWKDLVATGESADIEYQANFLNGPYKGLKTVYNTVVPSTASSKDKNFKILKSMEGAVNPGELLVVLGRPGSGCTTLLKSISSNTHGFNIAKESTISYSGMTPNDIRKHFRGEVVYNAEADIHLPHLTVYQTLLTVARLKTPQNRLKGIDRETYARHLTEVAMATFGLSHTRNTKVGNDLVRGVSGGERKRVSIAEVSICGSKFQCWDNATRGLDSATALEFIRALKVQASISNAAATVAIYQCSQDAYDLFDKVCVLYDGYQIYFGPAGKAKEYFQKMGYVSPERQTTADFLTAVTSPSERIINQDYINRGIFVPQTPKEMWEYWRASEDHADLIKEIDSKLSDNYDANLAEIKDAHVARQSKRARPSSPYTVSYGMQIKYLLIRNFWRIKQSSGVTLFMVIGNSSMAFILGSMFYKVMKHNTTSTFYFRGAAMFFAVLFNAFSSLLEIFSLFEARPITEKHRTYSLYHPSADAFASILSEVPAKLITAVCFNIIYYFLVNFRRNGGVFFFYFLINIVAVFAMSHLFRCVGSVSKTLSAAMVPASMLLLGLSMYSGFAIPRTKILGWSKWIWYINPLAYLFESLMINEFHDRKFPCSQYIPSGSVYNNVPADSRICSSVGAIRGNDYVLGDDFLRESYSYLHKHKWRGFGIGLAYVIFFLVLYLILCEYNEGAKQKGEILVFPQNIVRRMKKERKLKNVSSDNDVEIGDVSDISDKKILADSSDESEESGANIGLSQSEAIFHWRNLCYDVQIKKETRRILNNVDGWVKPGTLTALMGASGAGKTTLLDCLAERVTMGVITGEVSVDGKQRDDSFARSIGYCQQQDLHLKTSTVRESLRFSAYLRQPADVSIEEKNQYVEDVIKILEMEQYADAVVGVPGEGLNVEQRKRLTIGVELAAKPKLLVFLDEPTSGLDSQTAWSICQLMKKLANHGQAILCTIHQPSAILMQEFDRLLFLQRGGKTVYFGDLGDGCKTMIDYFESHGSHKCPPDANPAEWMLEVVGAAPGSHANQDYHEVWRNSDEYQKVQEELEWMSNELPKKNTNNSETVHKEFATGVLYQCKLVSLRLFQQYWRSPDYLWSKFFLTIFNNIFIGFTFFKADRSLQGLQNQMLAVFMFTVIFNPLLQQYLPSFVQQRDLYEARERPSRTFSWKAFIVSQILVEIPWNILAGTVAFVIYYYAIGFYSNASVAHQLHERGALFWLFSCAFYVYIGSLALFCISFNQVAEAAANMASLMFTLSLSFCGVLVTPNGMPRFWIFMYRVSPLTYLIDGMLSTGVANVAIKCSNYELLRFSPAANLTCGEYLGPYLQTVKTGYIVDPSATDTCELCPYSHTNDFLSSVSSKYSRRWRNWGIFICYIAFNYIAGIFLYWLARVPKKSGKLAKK
Chain of pCDR2 (ABC) efflux pump in S. cerevisiae YEM-37 (P78595 whole entry): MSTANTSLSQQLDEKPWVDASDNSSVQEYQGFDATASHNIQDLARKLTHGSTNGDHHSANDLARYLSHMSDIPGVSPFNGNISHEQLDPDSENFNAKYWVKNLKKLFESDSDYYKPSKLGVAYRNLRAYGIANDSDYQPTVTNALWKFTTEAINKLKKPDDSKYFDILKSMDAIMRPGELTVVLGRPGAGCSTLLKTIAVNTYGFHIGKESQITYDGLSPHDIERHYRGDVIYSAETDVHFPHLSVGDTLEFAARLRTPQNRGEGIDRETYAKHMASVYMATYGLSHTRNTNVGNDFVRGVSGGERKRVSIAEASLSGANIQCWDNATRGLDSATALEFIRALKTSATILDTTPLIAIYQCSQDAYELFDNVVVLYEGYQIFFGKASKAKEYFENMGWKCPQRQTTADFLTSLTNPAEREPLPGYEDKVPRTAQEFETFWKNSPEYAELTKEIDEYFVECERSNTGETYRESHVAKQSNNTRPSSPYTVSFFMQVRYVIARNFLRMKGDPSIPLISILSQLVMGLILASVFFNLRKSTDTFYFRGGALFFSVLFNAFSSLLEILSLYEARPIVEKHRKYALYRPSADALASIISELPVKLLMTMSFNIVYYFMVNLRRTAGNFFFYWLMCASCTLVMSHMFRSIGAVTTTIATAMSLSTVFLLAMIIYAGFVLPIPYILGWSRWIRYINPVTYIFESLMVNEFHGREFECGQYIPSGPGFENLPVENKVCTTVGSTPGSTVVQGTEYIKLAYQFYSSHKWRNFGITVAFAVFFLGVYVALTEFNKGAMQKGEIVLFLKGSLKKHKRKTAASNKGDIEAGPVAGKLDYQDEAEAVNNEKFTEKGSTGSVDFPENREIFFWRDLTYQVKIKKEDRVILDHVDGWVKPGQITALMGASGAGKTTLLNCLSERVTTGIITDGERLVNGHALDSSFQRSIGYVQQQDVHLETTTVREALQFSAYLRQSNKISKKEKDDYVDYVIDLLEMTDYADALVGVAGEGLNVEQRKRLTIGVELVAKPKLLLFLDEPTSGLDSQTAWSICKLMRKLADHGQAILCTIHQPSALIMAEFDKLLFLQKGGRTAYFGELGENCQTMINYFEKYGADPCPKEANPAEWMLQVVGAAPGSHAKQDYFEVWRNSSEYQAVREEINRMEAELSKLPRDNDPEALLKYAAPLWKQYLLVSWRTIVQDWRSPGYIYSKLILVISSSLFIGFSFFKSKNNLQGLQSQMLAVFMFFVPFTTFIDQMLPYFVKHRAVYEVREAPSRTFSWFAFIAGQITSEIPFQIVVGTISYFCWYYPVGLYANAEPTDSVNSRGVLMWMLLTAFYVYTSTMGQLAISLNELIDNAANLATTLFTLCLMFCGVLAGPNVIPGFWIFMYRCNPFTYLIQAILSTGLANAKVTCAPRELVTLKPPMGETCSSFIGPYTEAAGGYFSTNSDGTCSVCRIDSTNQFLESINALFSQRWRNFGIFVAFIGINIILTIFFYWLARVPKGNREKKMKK

Row | Compound | MIC of compound in the presence of fluconazole (+) [4] [µg/mL] | MIC of compound in the absence of fluconazole (−) [4] [µg/mL] | MIC of compound in the presence of fluconazole (+) [5] | MIC of compound in the absence of fluconazole (−) [5] [µg/mL] | MIC of compound in the absence of fluconazole (−) (YEM 51 C. glabrata wt; YEM 51, 24 hrs, 80% inhibition) [µg/mL] | MIC of compound in the absence of fluconazole (−) (YEM 53 C. krusei; YEM 53, 24 hrs, 80% inhibition) [µg/mL] | MIC of compound in the presence of fluconazole (+) [8] [µg/mL] | MIC of compound in the absence of fluconazole (−) [8] [µg/mL] | FEPI MIC with itraconazole, 60% Inh (Aspergillus fumigatus; 60% inhibition) | FEPI MIC with itraconazole, 80% Inh (Aspergillus fumigatus; 80% inhibition) | FEPI MIC with ketoconazole, 60% Inh (Aspergillus fumigatus; 60% inhibition) | FEPI MIC with ketoconazole, 80% Inh (Aspergillus fumigatus; 80% inhibition) | FEPI MIC (alone) (Aspergillus fumigatus; 80% inhibition) | MIC of compound in the absence of fluconazole (−) (YEM 30 C. albicans wt; YEM 30, 24 hrs, 80% inhibition) [µg/mL] | MIC of compound in the presence of fluconazole (+) [13] [µg/mL] | MIC of compound in the absence of fluconazole (−) [13] [µg/mL] | MIC of compound in the presence of fluconazole (+) [14] [µg/mL] | MIC of compound in the absence of fluconazole (−) [14] [µg/mL] | FEPIhalf (concentration needed to reduce activity of efflux pump by 50%) [6] | FEPIhalf (concentration needed to reduce activity of efflux pump by 50%) [7] | further results
1 | COc1cccc2c1C(=O)c1c(O)c3c(c(O)c1C2=O)C[C@@](O)(C(=O)CO)C[C@@H]3O[C@H]1C[C@H](N)[C@H](O)[C@H](C)O1 [Adriamycin, adriamycin, reference compound] |  |  |  |  |  |  |  |  |  |  |  |  |  |  |  |  |  |  |  |  | Adriamycin TC50, P388/ADM [1]: 2.954 µg/mL; Adriamycin TC50, P388 [2]: 0.009 µg/mL; Ratio [P388/A]/[P388] [3]: 337
2 | CCC(CC)C(=O)OCC1=C[C@H]2C(=O)O[C@H]3C[C@@H](C/C=C(\C)C[C@@H](C)/C=C/C=C4\CO[C@H]([C@@H]1O)[C@@]42O)O[C@@]1(CC[C@H](C)[C@@H](C)O1)C3 [Compound 21, 4a-O-(2-ethyl)butyryl milbemycin α1] | 8 | > 64 | 1 µg/mL | > 64 | > 64 | > 64 | > 64 | > 64 | 1 | 8 | ≦0.063 | ≦0.063 | >64 | > 64 | > 64 | > 64 | > 64 | > 64 |  |  | IC50 [6]: > 99.6 µM; IC50 [7]: 1.56 µM; MIC of compound in the presence of fluconazole (+) (YEM 51 C. glabrata wt): 8 µg/mL; MIC of compound in the presence of fluconazole (+) (YEM 53 C. krusei): 8 µg/mL; IC50 [9]: > 99.6 µM; IC50 [10]: > 99.6 µM; FEPI MIC with fluconazole, 60% Inh (Aspergillus fumigatus): 8; FEPI MIC with fluconazole, 80% Inh (Aspergillus fumigatus): 8; IC50 [11]: 6.22 µM; MIC of compound in the presence of fluconazole (+) (YEM 30 C. albicans wt): 0.125 µg/mL; FEPIhalf (concentration needed to reduce activity of efflux pump by 50%) ([12]; YEM-40 pCgBEN, fluconazole fixed at FLUhalf 2.8): >64
3 | LL-F2849α oxime [Compound 18] | > 64 | > 64 | > 64 µg/mL | > 64 | > 64 | > 64 | > 64 | > 64 | >64 | >64 | 0.125 | 0.125 | >64 | > 64 | > 64 | > 64 | > 64 | > 64 | >64 | >64 | MIC of compound in the presence of fluconazole (+) (YEM 51 C. glabrata wt; [19]): > 64 µg/mL; MIC of compound in the presence of fluconazole (+) (YEM 53 C. krusei; [20]): > 64 µg/mL; FEPIhalf (concentration needed to reduce activity of efflux pump by 50%) [9]: >64; FEPIhalf (concentration needed to reduce activity of efflux pump by 50%) [10]: >64; FEPI MIC with fluconazole, 60% Inh (Aspergillus fumigatus; [21]): 8; FEPI MIC with fluconazole, 80% Inh (Aspergillus fumigatus; [22]): >64; FEPIhalf (concentration needed to reduce activity of efflux pump by 50%) [11]: >64; MIC of compound in the presence of fluconazole (+) (YEM 30 C. albicans wt; [23]): ≦0.03; FEPIhalf (concentration needed to reduce activity of efflux pump by 50%) [12]: >64
4 | Milbemycin oxime [Compound 2] | 4 | > 64 | ≦0.03 | > 64 | > 64 | > 64 | > 64 | > 64 | >64 | >64 | 0.5 | 0.5 | >64 | > 64 | 64 | > 64 | > 64 | > 64 | >64 | <0.06 | Minimal concentration required to reduce the MIC of fluconazole by sixteen-fold (C. albicans YEM-13 (BEN)): 80 µg/mL; MIC of compound in the presence of fluconazole (+) (YEM 51 C. glabrata wt; [19]): 16 µg/mL; MIC of compound in the presence of fluconazole (+) (YEM 53 C. krusei; [20]): 2 µg/mL; FEPIhalf (concentration needed to reduce activity of efflux pump by 50%) [9]: 64; FEPIhalf (concentration needed to reduce activity of efflux pump by 50%) [10]: >64; FEPI MIC with fluconazole, 60% Inh (Aspergillus fumigatus; [21]): 2; FEPI MIC with fluconazole, 80% Inh (Aspergillus fumigatus; [22]): >64; MIC of fluconazole, Flu + McOxm (2.5 μg/ml) [15]: 2 µg/mL; Minimal concentration required to reduce the MIC of fluconazole by sixteen-fold [16]: >80 µg/mL; FEPIhalf (concentration needed to reduce activity of efflux pump by 50%) [11]: 0.125; MIC of compound in the presence of fluconazole (+) (YEM 30 C. albicans wt; [23]): ≦0.03; Minimal concentration required to reduce the MIC of fluconazole by sixteen-fold [17]: <0.07 µg/mL; FEPIhalf (concentration needed to reduce activity of efflux pump by 50%) [12]: >64; Minimal concentration required to reduce the MIC of fluconazole by sixteen-fold [18]: 1.25 µg/mL
